Reference: patent US11634594B2, “Antimicrobial agent for coatings and finishes” (SWIMC LLC, priority 2016, dated 2023)

Test system: challenge pool of 7 bacteria: P. aeruginosa, E. aerogenes, E. coli, K. pneumonia, S. aureus, B. subtilis and S. enterica
Experiment: ASTM D 2574 (modified) on pigment dispersions, split samples aged at room temperature / 3 weeks 60° C. / 6 weeks 60° C.
Type: cell-based
Procedure: ASTM D 2574: Standard Test for Resistance of Emulsion Paints in the Container to Attack by Microorganisms.
The test is conducted in accordance with the ASTM standard, except for the following modifications noted for the preparation of the inoculum and test procedure.
Preparation of Inoculum: There are 7 bacteria used in forming the challenge pool, they include: P. aeruginosa (ATCC #10145), E. aerogenes (ATCC #13048), E. coli (ATCC #10536), K. pneumonia (ATCC #10031), S. aureus (ATCC #6538), B. subtilis (ATCC #6051) and S. enterica (ATCC #13312). Bacterial cultures are prepared 24 hours before the test is scheduled to start by selecting one colony from a plate with a […], inoculating loop, adding it to 10 mL of sterile tryptic soy broth tubes and placing it on the shaking incubator. A 1 mL of each of the seven organisms is combined into a pool in a conical tube. A 1 mL of the created pool is then added to a 9 mL of sterile tryptic soy broth in a conical tube to get an inoculum concentration of ˜10^8 CFU/mL.
Test Procedure: A 1:100 dilution of the inoculum is added into each sample (ex. […], into 40 mL of sample) which provides a ˜10^6 CFU/mL challenge. The samples are then placed into 35° C. incubator for 24 hours to grow new organisms before each inoculation. The samples are inoculated on Days: 0, 2, 7 and 14. The samples are put back into incubator after each inoculation. […]

## bismuth aluminate
Table 4
  effectiveness compared with isothiazolone antimicrobial agent: at least as effective as the isothiazolone antimicrobial agent
Initial results
  preventing microbial growth: effective in preventing microbial growth
